Results published in patent US20230285258A1, “A SUNSCREEN FORMULATION” (priority 2019, published 2023).

How the values were obtained:
[1] = formulation containing 10%, 2 mg/cm^2 daily for a week, cited from earlier work
[2] = US general population 2003-2004; cited from earlier work
[3] = Urine samples collected in 2007-2009 from Californian females; type: in vivo, human; settings: from 22.9 ng/mL to 200 ng/mL
Protocol: Since the first day of sunscreen usage in 1930s, the exposure to sunscreen agents has begun. Initially the scope and frequency of the sunscreen usage among the human population was very limited. Therefore, the levels of UV filters found in human samples were usually low. However, for the last 20 years, the situation changed dramatically. In one epidemiological study conducted in 2003-2004, 2517 urine samples from United States (US) general population were analyzed for the presence of oxybenzone (benzophenone-3, bp-3), as part of the 2003-2004 National Health and Nutrition Examination Survey [A.M. Calafat, L.Y.Wong, X.YE, J.A.Reidy, L.L.Needham, Concentrations of the sunscreen agent benzophenone-3 in residents of the United States: National Health and nutrition Examination Survey 2003-2004, Environ. Health Perspect, 116(2008)893-897]. Oxybenzone was detected in 97% of the all samples with mean concentration of 22.9 ng/ml and 95th percentile concentration of 1040 ng/ml. As the data indicated the sunscreen agent occurrences is widespread. […] 543(2016)28-36]. […]

[4] = Californian females 2007-2009; cited from earlier work
[5] = Mice skin penetration test (ointment on shaved back, plasma HPLC)
Protocol: Mice preparation and blood sample taking: A group of mice ranging from 16 to 60 were fed with adequate food and water for 3 days. Twelve hours before the test the food was removed, and only water was given. Usually 12 mice were randomly selected with 2 mice assigned for each time points of 5, 15, 30, 60, 90, 120 minutes. Sometimes 3 mice may be selected for certain sample time points. Two hours before the test the mice were subjected to anesthesia and the hair on the back (2.5--3.0 cm^2) was removed. After recovering from anesthesia mice will be applied with testing ointment sample. The exact same testing procedures will be carried out with the control standard sample. At 5, 15, 30, 60, 90, 120 min. Blood sample (1 mL) will be collected after removing the eyes.
Blood sample pretreatment: after the blood sample was taken, it was immediately subjected to centrifugation 10 min. at 12000 rpm, supernatant plasma layer was taken, preserved at -20° C. for later use.
Blood sample preparation: Accurately transfer 150 µL plasma sample to a 1.5 mL EP test tube. Add methanol and acetonitrile 200 µL, respectively. Vertex mix for 1 min., then centrifuge for 10 min. at 12000 rpm. Precisely transfer the supernatant solution to another test tube. At 40° C. blow N2 through to dryness. To the solids left add methanol 150 µL, vertex mix for 1 min. centrifuge at 12000 rpm for 10 min. Supernatant solution was used directly for HPLC analysis.
(4-Aminomethoxy-2-hydroxy-phenyl)-phenyl-methanone-PAA-OMe-OPr(40): Column: C18 RP column (250 × 4.6 mm, 5 µm); column temperature: 25° C.; mobile phase: MeOH:0.05% Formic Acid = 70:30; Flow rate: 1.0 mL/min.; Wavelength: 310 nm; Injection volume: 20 L;
1-[4-(3-Amino-propoxy)-2-hydroxy-phenyl1-3-(4-tert-butyl-phenyl)-propane)-1,3-dione-PAA-OMe-OPr(40): Column: C18 RP column (250 × 4.6 mm, 5 m); column temperature: 25° C.; mobile phase: MeOH:0.05% Formic Acid = 80:20; Flow rate: 1.0 mL/min.; Wavelength: 360 nm; Injection volume: 20 µL; […]

Compound	mean urine concentration, females ([1]; adults) [ng/mL]	mean urine concentration, males ([1]; adults) [ng/mL]	maximum plasma concentration, females [1] [ng/mL]	maximum plasma concentration, males [1] [ng/mL]	95th percentile concentration in urine [2] [ng/mL]	mean concentration in urine [2] [ng/mL]	increase of average concentration in urine sample compared to the 2003-2004 study [3]	average level in urine samples [4]	highest level in urine samples [4]	hydrolysis in the plasma ([5]; inferred from mice blood samples after topical application)	sunscreen agent detected in plasma/blood samples by HPLC ([5]; mice, samples at 5, 15, 30, 60, 90, 120 min after topical application)	skin penetration of the sunscreen agent ([5]; topical test formulation on mice back, plasma at 5-120 min, compared with control formulation)
CCCCC(CC)COC(=O)C=Cc1ccc(OC)cc1 (stereo not drawn) [octyl methoxycinnamate]	5	8	10	2								
COc1ccc(C(=O)c2ccccc2)c(O)c1 [oxybenzone]	60		200	300	1040	22.9	more than 9 folds	around 200 ng/ml	up to 13000 ng/ml			
Octandioic Oxybenzone Ester										rapid hydrolysis	no octandioic oxybenzone esters was detected	skin penetration of octandioic oxybenzone ester
Cc1ccc(C=C2C(=O)C3(C)CCC2C3(C)C)cc1 (stereo not drawn) [4-methylbenzylidene camphor]	5		20	20								
